Assay results as given in ChEMBL document CHEMBL5360528, “A systematic review on the kappa opioid receptor and its ligands: New directions for the treatment of pain, anxiety, depression, and drug abuse” (Eur J Med Chem, 2022).
Where a SMILES comes first, the peptide text is derived from it. [ ]: non-standard residue; d: D form. βAla = NCCC(=O)O

What was measured:
[1] = target: T1, Delta-type opioid receptor (Homo sapiens, UniProt P41143); assay: Binding affinity to DOR (unknown origin) assessed as inhibition constant by ratio ligand binding assay
[2] = target: Kappa-type opioid receptor (Cavia porcellus) (UniProt P41144); assay: Agonist activity at KOR in guinea pig brain membranes assessed as stimulation of [35S]GTPgammaS binding relative to control; format: functional, cell membranes; conditions: Membrane, filed as agonist
Mu-type opioid receptor [3] = target: T2, Mu-type opioid receptor (Homo sapiens, UniProt P35372); assay: Binding affinity to MOR (unknown origin) assessed as inhibition constant by radioligand binding assay
Mus musculus [4] = assay: Antinociceptive activity in C57BL/6 mouse model of acute thermal pain assessed as paw withdrawal thermal threshold time at 1 mg/kg, po measured after 4 hrs by hot plate test; format: functional
[5] = target: T3, Kappa-type opioid receptor (Homo sapiens, UniProt P41145); assay: Binding affinity to KOR (unknown origin) assessed as inhibition constant
Mu-type opioid receptor [6] = target: T2, Mu-type opioid receptor; assay: Agonist activity at human MOR expressed in CHO-K1 cells assessed as inhibition of forskolin-stimulated cAMP accumulation incubated for 45 mins by cAMP HTRF assay; format: functional, cell-based
[7] = target: T3, Kappa-type opioid receptor; assay: Agonist activity at KOR (unknown origin) by measuring cAMP inhibition; format: functional
Mus musculus [8] = assay: Antinociceptive activity in ip dosed mouse assessed as inhibition of acetic acid-induced abdominal constrictions by writhing test; format: functional
[9] = target: T1, Delta-type opioid receptor; assay: Binding affinity to human DOR assessed as inhibition constant
Mus musculus [10] = assay: Antinociceptive activity in CD-1 mouse assessed as maximum possible effect at 10 nmol, icv measured after 15 mins by tail-flick test; format: functional; conditions: 0.25 h
Mus musculus [11] = assay: Antinociceptive activity in sc dosed Ach-induced mouse assessed as inhibition of abdominal constriction; format: functional
[12] = target: Kappa-type opioid receptor (Mus musculus, UniProt P33534); assay: Agonist activity at KOR in mouse vas deferens assessed as inhibition of electrically evoked vas deferens contraction
[13] = target: T3, Kappa-type opioid receptor; assay: Binding affinity to wild type human KOR assessed as inhibition constant
Mus musculus [14] = assay: Analgesic activity in sc dosed acetic acid induced mouse assessed as assessed as reduction in acetic acid induced writhing […]; format: functional
Mus musculus [15] = organism: Mus musculus; assay: Analgesic activity in acetic acid induced mouse assessed as assessed as reduction in acetic acid induced writhing […]; format: functional
Mus musculus [16] = assay: Antinociceptive activity in CFA-induced mechanical allodynia in CD1 mouse model assessed as reduction in nociceptive response by measuring effective dose at ip administration; format: functional
Mus musculus [17] = organism: Mus musculus; assay: Antinociceptive activity in CFA-induced mechanical allodynia CD1 mouse model assessed as reduction in mechanical allodynia; format: functional
Mus musculus [18] = assay: Analgesic activity in iv dosed DBTC-induced neuropathic pain CD1 mouse model assessed as effective dose measured for 1 weeks; format: functional; conditions: CD1, 168 h
Mus musculus [19] = assay: Antinociceptive activity in CFA-induced mechanical allodynia in CD1 mouse model assessed as reduction in nociceptive response by measuring effective dose at iv administration; format: functional
Mus musculus [20] = assay: Antinociceptive activity in sc dosed mouse measured after 60 mins by warm water tail-flick assay; format: functional; conditions: 1 h
Mus musculus [21] = assay: Antinociceptive activity in sc dosed mouse assessed as inhibition of acetic acid-induced abdominal constrictions by writhing test; format: functional
[22] = target: T3, Kappa-type opioid receptor; assay: Binding affinity to KOR (unknown origin) expressed in CHO-K1 cell membrane assessed as stimulation of [35S]-GTPgammaS binding incubated for 1.5 hrs by scintillation spectroscopy analysis relative DAMGO; format: cell membranes
Mu-type opioid receptor [23] = target: T2, Mu-type opioid receptor; assay: Binding affinity to human MOR expressed in HEK293 cells assessed as inhibition constant by GTPgammaS assay; format: cell-based
[24] = target: T1, Delta-type opioid receptor; assay: Binding affinity to human DOR expressed in HEK293 cells assessed as inhibition constant by GTPgammaS assay; format: cell-based
[25] = target: T3, Kappa-type opioid receptor; assay: Agonist activity at wild type human KOR receptor expressed in CHO cells assessed as stimulation of [35S]GTPgammaS binding measured after 30 mins by scintillation counting assay; format: functional, cell-based
[26] = target: Kappa-type opioid receptor (Cavia porcellus, UniProt P41144); assay: Agonist activity at KOR in guinea pig brain membranes assessed as stimulation of [35S]GTPgammaS binding measured after 1 hr by liquid scintillation counting analysis; format: functional, cell membranes, Membrane
[27] = target: T1, Delta-type opioid receptor; assay: Binding affinity human DOR expressed in CHO cells assessed as inhibition constant by radio ligand binding assay; format: cell-based
Mus musculus [28] = organism: Mus musculus; assay: Antinociceptive activity in C57BL/6 mouse model of acute thermal pain assessed as paw withdrawal thermal threshold time by hot plate test; format: functional
Mus musculus [29] = organism: Mus musculus; assay: Antinociceptive activity in Sprague-Dawley mouse assessed as inhibition of acetic acid-induced abdominal constrictions; format: functional
Mus musculus [30] = organism: Mus musculus; assay: Antinociceptive activity in Sprague-Dawley mouse assessed as inhibition of acetic acid-induced abdominal constrictions in presence of naloxone; format: functional
[31] = target: T3, Kappa-type opioid receptor; assay: Binding affinity to human KOR expressed in HEK293 cells assessed as inhibition of forskolin-stimulated cAMP accumulation by HTRF assay; format: cell-based
[32] = Tmax in Sprague-Dawley rat at 1 mg/kg, iv by LC-MS analysis; format: ADME, organism-based; conditions: in vivo
[33] = Half life in human; format: ADME
[34] = target: T3, Kappa-type opioid receptor; assay: Binding affinity to human recombinant KOR assessed as inhibition constant
[35] = Half life in C57BL/6 mouse […] at 20 mg/kg, ip by LC-MS/MS analysis; format: ADME, organism-based
[36] = Half life in C57BL/6 mouse plasma at 20 mg/kg, ip by LC-MS/MS analysis; format: ADME, organism-based
[37] = Half life in C57BL/6 mouse brain at 20 mg/kg, ip by LC-MS/MS analysis; format: ADME, organism-based

T1 sequence (P41143 whole entry): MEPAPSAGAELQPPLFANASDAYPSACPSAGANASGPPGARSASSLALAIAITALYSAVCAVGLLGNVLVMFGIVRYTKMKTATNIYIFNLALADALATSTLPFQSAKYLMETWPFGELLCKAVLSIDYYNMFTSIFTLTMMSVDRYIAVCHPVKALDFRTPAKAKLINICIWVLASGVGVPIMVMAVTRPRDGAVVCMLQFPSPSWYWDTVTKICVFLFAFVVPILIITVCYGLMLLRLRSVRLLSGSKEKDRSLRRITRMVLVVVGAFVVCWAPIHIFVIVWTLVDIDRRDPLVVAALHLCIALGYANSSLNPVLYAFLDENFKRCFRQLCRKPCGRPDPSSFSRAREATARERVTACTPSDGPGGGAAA
T2 sequence (P35372 whole entry): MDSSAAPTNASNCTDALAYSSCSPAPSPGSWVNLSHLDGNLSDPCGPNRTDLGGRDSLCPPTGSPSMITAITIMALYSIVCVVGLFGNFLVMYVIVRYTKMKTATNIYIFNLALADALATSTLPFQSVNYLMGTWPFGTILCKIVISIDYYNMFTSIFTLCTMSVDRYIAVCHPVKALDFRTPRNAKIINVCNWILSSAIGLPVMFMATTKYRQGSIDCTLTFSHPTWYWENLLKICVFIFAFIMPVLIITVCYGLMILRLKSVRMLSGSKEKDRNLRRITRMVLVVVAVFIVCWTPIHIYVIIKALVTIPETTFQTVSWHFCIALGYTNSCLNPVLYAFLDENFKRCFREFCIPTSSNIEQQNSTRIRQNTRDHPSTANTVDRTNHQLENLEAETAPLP
T3 sequence (P41145 whole entry): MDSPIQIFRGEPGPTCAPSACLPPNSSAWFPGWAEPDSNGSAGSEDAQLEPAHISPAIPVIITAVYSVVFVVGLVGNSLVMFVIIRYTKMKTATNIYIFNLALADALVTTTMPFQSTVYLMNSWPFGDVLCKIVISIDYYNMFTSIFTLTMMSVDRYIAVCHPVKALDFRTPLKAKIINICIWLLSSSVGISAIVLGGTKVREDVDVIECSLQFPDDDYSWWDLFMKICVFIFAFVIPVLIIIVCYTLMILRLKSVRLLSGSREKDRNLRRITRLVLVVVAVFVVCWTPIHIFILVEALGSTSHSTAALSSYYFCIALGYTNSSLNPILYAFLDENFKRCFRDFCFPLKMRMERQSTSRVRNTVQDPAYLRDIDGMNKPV
Sequence of Kappa-type opioid receptor (Mus musculus, UniProt P33534) (P33534 whole entry): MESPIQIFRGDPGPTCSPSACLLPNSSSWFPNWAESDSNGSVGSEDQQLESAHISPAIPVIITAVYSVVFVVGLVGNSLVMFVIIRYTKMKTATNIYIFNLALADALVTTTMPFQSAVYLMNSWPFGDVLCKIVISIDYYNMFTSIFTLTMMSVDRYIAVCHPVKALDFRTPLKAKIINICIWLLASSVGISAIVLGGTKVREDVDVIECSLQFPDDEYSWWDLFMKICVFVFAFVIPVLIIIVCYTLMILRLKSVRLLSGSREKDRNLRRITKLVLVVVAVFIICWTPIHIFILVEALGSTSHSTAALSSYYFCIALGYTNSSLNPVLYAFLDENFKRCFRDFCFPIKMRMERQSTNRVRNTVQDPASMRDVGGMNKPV
Sequence of Kappa-type opioid receptor (Cavia porcellus) (P41144 whole entry): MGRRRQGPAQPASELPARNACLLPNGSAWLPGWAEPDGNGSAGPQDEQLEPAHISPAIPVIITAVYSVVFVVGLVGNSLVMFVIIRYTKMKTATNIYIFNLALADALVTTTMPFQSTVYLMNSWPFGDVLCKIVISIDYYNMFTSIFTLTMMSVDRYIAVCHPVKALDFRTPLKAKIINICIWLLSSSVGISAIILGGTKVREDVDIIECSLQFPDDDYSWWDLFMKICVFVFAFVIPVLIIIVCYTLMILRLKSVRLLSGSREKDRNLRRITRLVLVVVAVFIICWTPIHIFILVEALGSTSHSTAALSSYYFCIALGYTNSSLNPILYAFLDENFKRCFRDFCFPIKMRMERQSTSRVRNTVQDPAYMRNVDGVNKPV
Sequence of Kappa-type opioid receptor (Cavia porcellus, UniProt P41144) (P41144 whole entry): as above

CCCCN(CCc1ccccc1)CCc1cccc(O)c1
Ki [1]: 2700 nM | Activity [2]: 45.5% | Ki (Mu-type opioid receptor [3]): 360 nM

CC(C)C[C@@H](NC(=O)[C@@H](CC1=CC=CCC1)NC(=O)[C@H](N)Cc1ccccc1)C(=O)N[C@H](CCCN)C(=O)N1CCOCC1
AD50 (Mus musculus [4]): 0.013 mg/kg | Ki [5]: 0.08 nM

COC(=O)[C@@H]1C[C@H](OC(=O)C2=Cc3ccccc3C2)C(=O)[C@H]2[C@@]1(C)CC[C@H]1C(=O)O[C@H](c3ccoc3)C[C@]21C
EC50 (Mu-type opioid receptor [6]): 49.5 nM | EC50 [7]: 853 nM | Ki (Mu-type opioid receptor [3]): 538 nM | Ki [5]: 49.7 nM

C[C@H]1[C@H]2Cc3ccc(C(N)=O)cc3[C@@]1(C)CCN2CC1CC1
ED50 (Mus musculus [8]): 0.21 nmol | Ki [9]: 4.9 nM

Cc1ccc(CSc2nnc(-c3ccccn3)n2Cc2ccco2)cc1C(F)(F)F
Ki [1]: 5350 nM | Ki (Mu-type opioid receptor [3]): 1900 nM

CC(C)=CCN1CC[C@@]2(C)c3cc(O)ccc3CC1C2C (some centres not stated) [PENTAZOCINE]
Ki [1]: 62 nM | EC50 [7]: 40 nM | Ki [5]: 7.6 nM

O=C(N[C@@H]1CC[C@@]2(O)[C@H]3Cc4ccc(O)c5c4[C@@]2(CCN3CC2CC2)[C@H]1O5)c1ccc2ccccc2c1
ED50 (Mus musculus [10]): 18.7 pmol

COC(=O)N1CCN(C(=O)Cc2ccc(Cl)c(Cl)c2)C(CN2CCCC2)C1 (configuration not stated)
ED50 (Mus musculus [11]): 0.00052 mg/kg | IC50 [12]: 0.041 nM

O=C(N[C@@H]1C=C[C@H]2[C@H]3Cc4ccc(O)c5c4[C@@]2(CCN3CC2CC2)[C@H]1O5)c1cccc(I)c1
Ki [13]: 0.006 nM | ED50 (Mus musculus [14]): 1 mg/kg | Ki [9]: 0.08 nM | Ki (Mu-type opioid receptor [3]): 0.021 nM | ED50 (Mus musculus [15]): 0.33 mg/kg

CC(C)C[C@@H](NC(=O)[C@@H](Cc1ccccc1)NC(=O)[C@H](N)Cc1ccccc1)C(=O)N[C@H](CCCCN)C(=O)N1CCC(N)(C(=O)O)CC1 [listing 1 of 2 here]
ED50 (Mus musculus [16]): 0.3 mg/kg | ED50 (Mus musculus [17]): 0.07 mg/kg | ED50 (Mus musculus [18]): 0.3 mg/kg | ED50 (Mus musculus [19]): 0.38 mg/kg

CC(C)C[C@@H](NC(=O)[C@@H](Cc1ccccc1)NC(=O)[C@H](N)Cc1ccccc1)C(=O)N[C@H](CCCCN)C(=O)N1CCC(N)(C(=O)O)CC1 [listing 2 of 2 here]
Ki (Mu-type opioid receptor [3]): > 10000 nM | Ki [5]: 0.32 nM

CN(C(=O)/C=C/c1ccoc1)[C@@H]1CC[C@@]2(O)[C@H]3Cc4ccc(O)c5c4[C@@]2(CCN3CC2CC2)[C@H]1O5 [NALFURAFINE]
ED50 (Mus musculus [20]; Mus musculus, read-out: ED50): 0.003 mg/kg | ED50 (Mus musculus [21]; Mus musculus, read-out: ED50): 0.062 mg/kg

C[N+]1(CC2CC2)CC[C@]23c4c5ccc(O)c4O[C@H]2C(=O)CC[C@@]3(O)[C@H]1C5 (some centres not stated) [METHYLNALTREXONE]
EC50 [7]: 6.7 nM | Ki (Mu-type opioid receptor [3]): 10 nM | Ki [22]: ~30 nM

N=C(N)Nc1ccc2c3c([nH]c2c1)[C@@H]1Oc2c(O)ccc4c2[C@@]12CCN(CC1CC1)[C@H](C4)[C@]2(O)C3
Ki (Mu-type opioid receptor [23]): 20.3 nM | Ki [24]: 81.8 nM

O=C(O[C@@H]1[C@@H]2[C@H]3C[C@@H](C[C@H]2C(=O)O[C@H]1c1ccoc1)OC3=O)c1ccccc1
Ki [13]: 9 nM | EC50 [25]: 2 nM | Ki [26]: > 5000 nM

C[C@H]1[C@H]2Cc3ccc(O)cc3[C@@]1(C)CCN2CCc1ccccc1
ED50 (Mus musculus [21]; Mus musculus, read-out: ED50): 6.3 mg/kg

CCCC[C@@H](NC(=O)[C@@H](CC1=CC=CCC1)NC(=O)[C@H](N)Cc1ccccc1)C(=O)N[C@H](CCCNC(=N)N)C(=O)NCc1ccncc1
AD50 (Mus musculus [4]): 0.007 mg/kg | Ki [5]: 0.24 nM

CN1CC[C@]23c4c5ccc(O)c4O[C@H]2C(=O)CC[C@@]3(OCCCc2ccccc2)[C@H]1C5
Ki [13]: 0.3 nM | Ki (Mu-type opioid receptor [23]): 0.073 nM | Ki [27]: 0.13 nM | AD50 (Mus musculus [28]): 0.0007 mg/kg

O=C(N[C@@H]1CC[C@@]2(O)[C@H]3Cc4ccc(O)c5c4[C@@]2(CCN3CC2CC2)[C@H]1O5)c1cc[n+](Cc2ccccc2)cc1
Ki [9]: 722 nM | Ki (Mu-type opioid receptor [3]): 3.46 nM | Ki [5]: 3.46 nM

C[C@H]1[C@@H]2Cc3ccc(O)cc3[C@]1(C)CCN2CC1CC1
ED50 (Mus musculus [29]): 0.47 mg/kg | ED50 (Mus musculus [30]): 0.077 mg/kg

CC(C)=CCN1CC[C@]2(C)c3cc(O)ccc3C[C@H]1[C@H]2C [(+)-PENTAZOCINE]
Ki [1]: 62 nM | EC50 [7]: 40 nM | Ki [5]: 7.6 nM

Oc1ccc2c(c1)[C@@]13CCCC[C@H]1[C@@H](C2)N(CC1CCC1)CC3 [BUTORPHAN]
ED50 (Mus musculus [20]): 7.3 nmol | ED50 (Mus musculus [21]): 0.79 nmol

O=C1CNC(=O)[C@H](Cc2ccccc2)NC(=O)[C@@H](Cc2c[nH]c3ccccc23)NC(=O)CCN1 (cyclo(FG[βAla][dW]))
Ki [9]: > 10 nM | Ki [31]: > 10 nM

Cc1cc(C)cc([C@@H]2CCCN2Cc2ccc(Oc3ccc(C(N)=O)cc3F)cc2)c1 [ATICAPRANT]
Tmax [32]: 1 h | half-life [33]: 21 h

CCCC[C@@H](NC(=O)[C@@H](CC1=CC=CCC1)NC(=O)[C@H](N)Cc1ccccc1)C(=O)N[C@H](CCCNC(=N)N)C(N)=O
Ki [5]: < 1 nM

CN(C(=O)C(c1ccccc1)c1ccccc1)[C@H](CN1CC[C@H](O)C1)c1ccccc1 [ASIMADOLINE]
Ki [34]: 5.6 nM

C#Cc1occc1[C@@H]1C[C@@]2(C)[C@@H](CC[C@@]3(C)[C@H](C(=O)OC)C[C@H](OC(C)=O)C(=O)[C@@]32C)C(=O)O1
Ki [5]: 2.5 nM

COC(=O)[C@@H]1C[C@H](OC(C)=O)[C@H](O)[C@H]2[C@@]1(C)CC[C@H]1C(=O)O[C@H](c3ccoc3)C[C@]21C [1-ALPHA-HYDROXYSALVINORIN A]
half-life [35]: 3.75 h | half-life [36]: 3.75 h | half-life [37]: 3.75 h
